Laboratory results as given in patent US8193239B2, “Substituted 1-cyanoethylheterocyclylcarboxamide compounds” (AstraZeneca AB, priority 2009, dated 2012).
Counter-ions that a name gives are not always drawn.

Biological target: Recombinant Human (rh) DPP1 (Homo sapiens, UniProt P53634)
Experiment: Fluorescence Assay for Recombinant Human (rh) DPP1
Format: biochemical
Settings: rhDPP1, substrate H-Gly-Arg-AMC, pH5.0, 22° C., pre-incubated 30-60 min; read-out: DPP1 activity, pIC50 (converted)
Experimental: Fluorescence Assay for Recombinant Human (rh) DPP1
The activity of DPP1 was determined by measuring the enzymatic release of aminomethyl coumarin (AMC) from the peptide substrate (H-Gly-Arg-AMC), which leads to an increase in fluorescence intensity at λex=350 nm and λem=450 nm. The assay was carried out in black 384 well plates in a final volume of 50 μl at 22° C. The assay conditions contained the following: 25 mM piperazine buffer pH5.0; 50 mM NaCl, 5 mM DTT; 0.01% (v/v) Triton X-100; 100 μM H-Gly-Arg-AMC and rhDPP1 ([…]). […] A standard DPP1 inhibitor (vinyl sulfone, see below, or Example 24 from WO2009/074829) was used as a positive control in the assay. Routinely, inhibitors were pre-incubated with rhDPP1 for 30-60 min prior to the addition of the peptide substrate to start the reaction for a further 60 min at 22° C. After that the plates were immediately read in a fluorescence plate reader using the above emission and excitation wavelengths [modified from Kam, C M, Gotz, M G, Koot, G, McGuire, M J, Thiele, D L, Hudig, D & Powers, J C (2004). Arch Biochem Biophys, 427, 123-134 & McGuire, M J, Lipsky, P E & Thiele, D L (1992). Arch Biochem Biophys, 295, 280-288].

Chain of Recombinant Human (rh) DPP1 (P53634 231-394 limits assumed): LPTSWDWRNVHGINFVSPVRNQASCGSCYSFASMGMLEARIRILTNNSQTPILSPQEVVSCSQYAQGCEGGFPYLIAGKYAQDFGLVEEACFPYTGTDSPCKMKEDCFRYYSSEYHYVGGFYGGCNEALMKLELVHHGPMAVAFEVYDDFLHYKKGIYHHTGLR
Chain of Recombinant Human (rh) DPP1 (P53634 25-134 limits assumed): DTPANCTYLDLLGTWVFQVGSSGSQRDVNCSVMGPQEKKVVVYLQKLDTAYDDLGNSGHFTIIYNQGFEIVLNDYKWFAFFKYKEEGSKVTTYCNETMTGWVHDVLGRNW
Chain of Recombinant Human (rh) DPP1 (P53634 395-463 limits assumed): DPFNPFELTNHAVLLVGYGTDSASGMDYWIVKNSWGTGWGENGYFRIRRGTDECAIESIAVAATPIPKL

Row | Structure (SMILES) | IC50 [nM]
1 | COc1cc(-c2ccc(C[C@@H](C#N)NC(=O)C3(N)CCOCC3)cc2)ccn1 [Example 26, (S)-4-Amino-N-(1-cyano-2-(4-(2-methoxypyridin-4-yl)phenyl)ethyl)tetrahydro-2H-pyran-4-carboxamide] | 1.26
2 | N#C[C@H](Cc1ccc(-c2ccc(S(=O)(=O)N3CCOCC3)cc2)cc1)NC(=O)C1(N)CCOCC1 [Example 27, (S)-4-Amino-N-(1-cyano-2-(4′-(morpholinosulfonyl)biphenyl-4-yl)ethyl)tetrahydro-2H-pyran-4-carboxamide trifluoroacetic acid salt] | 1.58
3 | CN1C(=O)CSc2cc(-c3ccc(C[C@@H](C#N)NC(=O)C4(N)CCOCC4)cc3)ccc21 [Example 28, (S)-4-Amino-N-(1-cyano-2-(4-(4-methyl-3-oxo-3,4-dihydro-2H-benzo[b][1,4]thiazin-7-yl)phenyl)ethyl)tetrahydro-2H-pyran-4-carboxamide] | 0.398
4 | CN1CCN(S(=O)(=O)c2ccc(-c3ccc(C[C@@H](C#N)NC(=O)C4(N)CCOCC4)cc3)cc2)CC1 [Example 29, (S)-4-Amino-N-(1-cyano-2-(4′-(4-methylpiperazin-1-ylsulfonyl)biphenyl-4-yl)ethyl)tetrahydro-2H-pyran-4-carboxamide] | 0.631
5 | CN1Cc2ccc(-c3ccc(C[C@@H](C#N)NC(=O)C4(N)CCOCC4)cc3)cc2C1=O [Example 30, (S)-4-Amino-N-(1-cyano-2-(4-(2-methyl-3-oxoisoindolin-5-yl)phenyl)ethyl)tetrahydro-2H-pyran-4-carboxamide trifluoroacetic acid salt] | 5.01
6 | CN1Cc2cc(-c3ccc(C[C@@H](C#N)NC(=O)C4(N)CCOCC4)cc3)ccc2C1=O [Example 31, (S)-4-Amino-N-(1-cyano-2-(4-(2-methyl-1-oxoisoindolin-5-yl)phenyl)ethyl)tetrahydro-2H-pyran-4-carboxamide] | 1.58
7 | CN1Cc2cc(-c3ccc(C[C@@H](C#N)NC(=O)C4(N)CCOCC4)cc3)cnc2C1=O [Example 32, (S)-4-Amino-N-(1-cyano-2-(4-(6-methyl-7-oxo-6,7-dihydro-5H-pyrrolo[3,4-b]pyridin-3-yl)phenyl)ethyl)tetrahydro-2H-pyran-4-carboxamide] | 5.01
8 | N#C[C@H](Cc1ccc(-c2ccc3oc(=O)[nH]c3c2)cc1)NC(=O)C1(N)CCOCC1 [Example 33, (S)-4-Amino-N-(1-cyano-2-(4-(2-oxo-2,3-dihydrobenzo[d]oxazol-5-yl)phenyl)ethyl)tetrahydro-2H-pyran-4-carboxamide trifluoroacetatic acid salt] | 0.398
9 | N#C[C@H](Cc1ccc(-c2ccc3c(c2)CS(=O)(=O)C3)cc1)NC(=O)C1(N)CCOCC1 [Example 34, 4-Amino-N-{(1S)-1-cyano-2-[4-(2,2-dioxido-1,3-dihydro-2-benzothiophen-5-yl)phenyl]ethyl}tetrahydro-2H-pyran-4-carboxamide] | 1.26
